Source: patent US7713994B2 (Wyeth LLC, priority 2005, dated 2010)
Read-outs that look alike come from different tables or passages of the source.

Tests used:
[1] = target: T1, cyclin B/CDK1 enzyme (Homo sapiens, UniProt P06493); experiment: CDK1 ELISA kinase assay (phospho-Rb ser 795 detection); assay type: biochemical; conditions: In Vitro Enzyme Assays, read-out: CDK1 IC50
T1 construct: purchased New England BioLabs; host or cells: Sf9 insect cells, recombinant baculovirus
Method in brief: (§1)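 GST-Rb C-terminal fragment coated on wells; kinase reaction: 200 μM ATP, 0.5 mg/ml BSA, HEPES pH 7.5, 10 mM MgCl2, baculovirus/Sf9 cyclin-CDK, 30° C, 1 h. Readout anti-phospho-Rb Ser795, HRP, TMB, A450. Test compound 10 ug/ml final.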

[2] = system: HCT-116; experiment: Cytotoxicity assay (SRB), HCT-116; assay type: cell-based; conditions: Homo sapiens, HCT-116, 72 h, HCT116 cells, SRB, read-out: In Vitro Cellular Activity IC50 HCT116
Method in brief: (§2)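 Cells seeded overnight at 37 °C, 7% CO2 (BT474 12000, HCT-116 4000, LoVo and MCF-7 6000 cells/well) in RPMI 1640 with 5% FBS, then exposed to compound dilutions for 3 days (BT474 6 days). Survival versus untreated controls by TCA fixation and SRB staining, absorbance 540 nm.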

[3] = system: MCF-7; experiment: Cytotoxicity assay (SRB), MCF-7; assay type: cell-based; conditions: Homo sapiens, MCF7, 72 h, MCF-7 cells, SRB, read-out: In Vitro Cellular Activity IC50 MCF-7
Method in brief: as §2

[4] = system: LoVo; experiment: Cytotoxicity assay (SRB), LoVo; assay type: cell-based; conditions: Homo sapiens, LoVo, 72 h, LoVo cells, SRB, read-out: In Vitro Cellular Activity IC50 LOVO
Method in brief: as §2

[5] = target: T2, cyclin D1/cdk 4 enzyme (Homo sapiens, UniProt P11802); experiment: CDK4 ELISA kinase assay (phospho-Rb ser 795 detection); assay type: biochemical; conditions: In Vitro Enzyme Assays, 200 μM ATP, read-out: CDK4 IC50
T2 construct: made in house; host or cells: Sf9 insect cells, recombinant baculovirus
Method in brief: as §1

[6] = system: BT474; experiment: Cytotoxicity assay (SRB), BT474; assay type: cell-based
Method in brief: as §2

[7] = Homo sapiens, BT-474, 144 h, BT474 cells, SRB, 6 days; read-out: In Vitro Cellular Activity IC50 BT474
[8] = Homo sapiens, BT-474, 144 h, BT474 cells, 6 days, SRB; read-out: In Vitro Cellular Activity IC50 BT474

T2 sequence (P11802 whole entry, species assumed): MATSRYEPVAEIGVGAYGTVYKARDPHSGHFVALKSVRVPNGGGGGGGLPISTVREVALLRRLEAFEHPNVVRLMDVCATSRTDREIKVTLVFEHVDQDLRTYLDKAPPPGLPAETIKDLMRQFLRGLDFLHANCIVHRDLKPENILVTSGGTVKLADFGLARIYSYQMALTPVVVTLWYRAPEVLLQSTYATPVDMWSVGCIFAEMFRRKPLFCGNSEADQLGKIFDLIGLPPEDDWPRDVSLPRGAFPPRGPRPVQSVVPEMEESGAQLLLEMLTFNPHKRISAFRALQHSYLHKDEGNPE
T2 sequence (P24385 whole entry partner, species assumed): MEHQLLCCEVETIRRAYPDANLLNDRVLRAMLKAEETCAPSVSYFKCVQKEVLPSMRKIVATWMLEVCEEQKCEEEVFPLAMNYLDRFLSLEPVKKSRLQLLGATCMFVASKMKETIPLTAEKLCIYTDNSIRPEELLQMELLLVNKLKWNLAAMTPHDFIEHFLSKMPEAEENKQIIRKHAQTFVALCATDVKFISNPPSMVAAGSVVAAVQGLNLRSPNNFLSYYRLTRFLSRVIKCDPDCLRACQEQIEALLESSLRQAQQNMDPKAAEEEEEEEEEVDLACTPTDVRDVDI
T1 sequence (P06493 whole entry): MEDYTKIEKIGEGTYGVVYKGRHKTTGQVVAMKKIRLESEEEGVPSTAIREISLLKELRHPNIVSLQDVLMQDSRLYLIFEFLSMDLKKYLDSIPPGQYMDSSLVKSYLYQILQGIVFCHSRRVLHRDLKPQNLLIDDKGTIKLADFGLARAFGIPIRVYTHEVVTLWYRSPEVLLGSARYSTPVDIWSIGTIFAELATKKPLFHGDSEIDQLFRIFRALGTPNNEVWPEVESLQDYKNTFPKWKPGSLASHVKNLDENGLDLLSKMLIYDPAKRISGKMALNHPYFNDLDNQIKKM
T1 sequence (P14635 whole entry partner): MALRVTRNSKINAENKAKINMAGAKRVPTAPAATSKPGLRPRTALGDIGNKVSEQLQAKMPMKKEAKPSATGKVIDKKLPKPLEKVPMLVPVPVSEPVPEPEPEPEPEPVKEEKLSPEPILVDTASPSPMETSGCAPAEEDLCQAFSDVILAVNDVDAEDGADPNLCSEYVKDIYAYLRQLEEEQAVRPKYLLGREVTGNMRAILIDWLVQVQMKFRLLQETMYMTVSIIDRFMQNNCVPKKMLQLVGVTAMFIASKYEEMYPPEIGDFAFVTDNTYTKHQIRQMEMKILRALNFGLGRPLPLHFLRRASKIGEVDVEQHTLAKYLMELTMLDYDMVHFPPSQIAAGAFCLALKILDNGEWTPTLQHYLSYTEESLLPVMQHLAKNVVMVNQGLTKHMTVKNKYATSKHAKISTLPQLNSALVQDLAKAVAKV

melting point | IC50 [1] [µM] | IC50 [5] [µM] | SMILES | IC50 ([2]; three days) [µM] | IC50 ([3]; three days) [µM] | IC50 ([4]; three days) [µM] | IC50 [6, 7] [µM] | IC50 [6, 8] [µM] | IC50 ([2]; 3 days) [µM] | IC50 ([3]; 3 days) [µM] | IC50 ([4]; 3 days) [µM]
184 to 186 °C | > 50 | 1.1 | CC(=O)Oc1ccc(CN/C=C2\C(=O)NC(=O)c3ccccc32)cc1OC(C)=O [Example 47, 2-(Acetyloxy)-4-({[(Z)-(1,3-dioxo-2,3-dihydroisoquinolin-4(1H)-ylidene)methyl]amino}-methyl)phenyl acetate] | 21 | 20 | 22 |  |  |  |  | 
272 to 273 °C | 37.2 | > 50 | O=C1NC(=O)c2ccccc2/C1=C/NCc1ccc(O)cc1 [Example 61] | 27.6 | > 50 | > 50 | > 50 |  |  |  | 
261 to 262 °C | > 50 | 0.78 | O=C1NC(=O)c2ccccc2/C1=C/NCc1cccc(O)c1 [Example 63] | > 50 | > 50 | > 50 | 49 |  |  |  | 
204 to 205 °C | > 50 | 0.037 | O=C1NC(=O)c2ccc(-c3ccoc3)cc2/C1=C/Nc1ccc(CN2CCCCC2)cc1 [Example 93] |  |  | 1.8 | 1 |  |  |  | 
214 to 215 °C | > 50 |  | O=C1NC(=O)c2ccc(-c3ccccc3)cc2/C1=C/Nc1ccc(CN2CCCCC2)cc1 [Example 95] |  |  | 3.7 | 3 |  |  |  | 
244 to 245 °C | > 50 | 0.041 | O=C1NC(=O)c2ccc(-c3ccc(O)cc3)cc2/C1=C/Nc1ccc(CN2CCCCC2)cc1 [Example 103] |  |  | 2.3 | 3.7 |  |  |  | 
245 to 246 °C |  |  | O=C1NC(=O)c2ccc(Br)cc2/C1=C/NCc1ccc(NC(=O)C2CC2)c(OC(=O)C2CC2)c1 [Example 185, 5-({[(Z)-(6-Bromo-1,3-dioxo-2,3-dihydroisoquinolin-4(1H)-′cyclopropanecarboxylate ′ylidene)methyl]amino}methyl)-2-[(cyclopropylcarbonyl)amino]phenyl] | 2.8 | > 50 | 2.7 | 0.87 |  |  |  | 
206 to 207 °C |  |  | CCCOc1ccc(CN/C=C2\C(=O)NC(=O)c3ccc(Br)cc32)cc1OC(=O)CC [Example 190, 5-({[(Z)-(6-Bromo-1,3-dioxo-2,3-dihydroisoquinolin-4(1H)-ylidene)methyl]amino}-methyl)-2-propoxyphenyl propionate] | 9.4 | > 50 | 13 | 1.4 |  |  |  | 
211 to 212 °C |  |  | CCCOc1ccc(CN/C=C2\C(=O)NC(=O)c3ccc(Br)cc32)cc1OC(=O)OC [Example 191, 5-({[(Z)-(6-Bromo-1,3-dioxo-2,3-dihydroisoquinolin-4(1H)-ylidene)methyl]amino}-methyl)-2-propoxyphenyl methyl carbonate] | 35 | > 50 | > 50 | 5.7 |  |  |  | 
> 300 °C |  |  | CN1CCN(C(=O)Nc2ccc(N/C=C3\C(=O)NC(=O)c4ccc(Br)cc43)cc2)CC1 [Example 215, N-(4-{[(Z)-(6-Bromo-1,3-dioxo-2,3-dihydroisoquinolin-4(1H)-′ylidene)methyl]amino}phenyl)-4-methylpiperazine-1-carboxamide] | 4.5 | 7.1 | 6.4 | 7.4 |  |  |  | 
274 to 276 °C |  |  | COc1cc2c(cc1Br)/C(=C/Nc1ccc(N3CCN(C)CC3)cc1)C(=O)NC2=O [Example 242, 6-Bromo-7-methoxy-4-{[4-(4-methyl-piperazin-1-yl)-phenylamino]-methylene}-4H-isoquinoline-1,3-dione] | 2.1 | 5.2 | 4.5 | 3.2 |  |  |  | 
265 to 266 °C |  |  | O=C1NC(=O)c2ccc(I)cc2/C1=C/Nc1ccc(OCc2ccccn2)cc1 [Example 247] | 18 | > 50 | > 50 | 35 |  |  |  | 
200 to 201 °C | > 50 |  | CN1CCN(c2ccc(N/C=C3\C(=O)NC(=O)c4ccc(-c5ccoc5)cc43)cn2)CC1 [Example 249, (4Z)-6-(3-Furyl)-4-({[6-(4-methylpiperazin-1-yl)pyridin-3-′yl]amino}methylene)isoquinoline-1,3(2H,4H)-dione] |  |  | 2.4 | 2 |  |  |  | 
264 to 267 °C |  |  | COc1cc2c(cc1Br)/C(=C/Nc1ccc(CN3CCCCC3)cc1)C(=O)NC2=O [Example 252, 6-Bromo-7-methoxy-4-[(4-piperidin-1-ylmethyl-phenylamino)-methylene]-4H-isoquinoline-1,3-dione] | 14 | 33 | 21 | 15 |  |  |  | 
224 to 225 °C |  |  | O=C1NC(=O)c2ccc(Br)cc2/C1=C/Nc1ccc(CN2CCSC2)cc1 [Example 281, (4Z)-6-Bromo-4-({[4-(1,3-thiazolidin-3-ylmethyl)phenyl]amino}methylene)isoquinoline-1,3(2H,4H)-dione] | 20 | 19 | 12 | 44.3 |  |  |  | 
200 to 201 °C |  |  | COC[C@H]1CCCN1Cc1ccc(N/C=C2\C(=O)NC(=O)c3ccc(-c4ccc(OC(C)C)cc4)cc32)cc1 [Example 300, (4Z)-6-(4-Isopropoxyphenyl)-4-{[(4-{[(2R)-2-(methoxymethyl)pyrrolidin-1-yl]methyl}phenyl)amino]methylene}isoquinoline-1,3(2H,4H)-dione] | 3.1 | 8.7 | 26 | 17 |  |  |  | 
293 to 297 °C (dec.) |  |  | O=C1NC(=O)c2ccc(Br)cc2C1=CNCc1cc(=O)c(O)co1 [Example 313, 6-Bromo-4-{[(5-hydroxy-4-oxo-4H-pyran-2-ylmethyl)-amino]-methylene}-4H-isoquinoline-1,3-dione] | 27 | 22 | 41 | 43 |  |  |  | 
168 to 169 °C |  |  | C[C@@H]1CN(c2ccc(N/C=C3\C(=O)NC(=O)c4ccc(Br)cc43)cc2F)C[C@H](C)N1 [Example 318, (4Z)-6-Bromo-4-[({4-[(3R,5S)-3,5-dimethylpiperazin-1-yl]-3-fluorophenyl}amino)methylene]isoquinoline-1,3(2H,4H)-dione] | 1.3 | 2.5 | 1.5 | 1.9 |  |  |  | 
290 to 291 °C |  |  | Cc1nn(-c2ccc(NC=C3C(=O)NC(=O)c4ccc(Br)cc43)cc2)c(C)c1Cl [Example 348, 6-Bromo-4-{[4-(4-chloro-3,5-dimethyl-pyrazol-1-yl)-phenylamino]-methylene}-4H-isoquinoline-1,3-dione] | 2.6 | 5.1 | 1.8 | 6.1 |  |  |  | 
317 to 318 °C (dec.) |  |  | O=C1NC(=O)c2ccc(-n3cccc3)cc2/C1=C/Nc1ccc(Br)cn1 [Example 444, (Z)-4-((5-Bromopyridin-2-ylamino)methylene)-6-(1H-pyrrol-1-yl)isoquinoline-1,3(2H,4H)-dione] |  |  |  |  | 5.2 | 3.2 | 8.9 | 5
223 to 224 °C |  |  | CC(C)N1CCN(c2ccc(N/C=C3\C(=O)NC(=O)c4ccc(Br)cc43)nc2)CC1 [Example 486, (4Z)-6-Bromo-4-({[5-(4-isopropylpiperazin-1-yl)pyridin-2-yl]amino}methylene)isoquinoline-1,3(2H,4H)-dione] |  |  |  |  | 3.61 | 7.49 | 10 | 7.56
251 to 253 °C (dec.) |  |  | CCCOc1ccc(CN/C=C2\C(=O)NC(=O)c3ccc(I)cc32)nc1Br [Example 493, (Z)-4-(((6-Bromo-5-propoxypyridin-2-yl)methylamino)methylene)-6-iodoisoquinoline-1,3(2H,4H)-dione] |  |  |  |  | 10.9 | 4.7 | 10.2 | 9.4
275 to 281 °C (dec.) |  |  | CCCOc1ccc(CN/C=C2\C(=O)NC(=O)c3ccc(I)cc32)nc1O [Example 510, 4-{[(6-Hydroxy-5-propoxy-pyridin-2-ylmethyl)-amino]-methylene}-6-iodo-4H-isoquinoline-1,3-dione] |  |  |  |  | 0.16 | 0.67 | 1.4 | 0.42
